For this test, the target named is T1, delF508-CFTR (Homo sapiens, UniProt P13569, DEL508-508).
T1 construct: expressed in transfected cells
As to the kind of experiment: Measurement of delF508-CFTR-HRP surface expression in CFBE41o- cells. Type of test: cell-based. As to conditions: for EC50: HRP-tagged delF508-CFTR in CFBE41o- cells, 24 h with compound, luminescence, 10-point curve, top 10 μM; for Emax: efficacy relative to reference compound 3-(6-(1-(2,2-difluorobenzo[d][1,3]dioxol-5-yl)cyclopropane-1-carboxamido)-3-methylpyridin-2-yl)benzoic acid, CFBE41o- cells, 24 h, read-out: DelF508-CFTR-HRP Amax %. The source says: Measurement of delF508-CFTR-HRP Surface Expression in CFBE41o-Cells
This assay quantifies the cell surface expressions of the mutant CFTR channel using an extracellular HRP tag.
A cellular assay was developed to measure surface expression of horseradish peroxidase (HRP) tagged delF508-CFTR in the human bronchial epithelial immortalized CFBE41o-cell line (Phuan, P. W., et al, (2014) Molecular Pharmacology 86:42-51). Specifically, the HRP sequence was inserted into the fourth extracellular loop of delF508-CFTR and stably expressed in CFBE41o-cells. Cells were seeded in 384 well plate at a density of 5000 cells/well and incubated at 37° C. for 12 to 24 hours in medium (Gibco MEM #11095, 10% FBS, 10 mM HEPES, […], 200 μg/mL G418, 3 μg/mL Puromycin). The delF508-CFTR-HRP expression was induced with 500 ng/mL doxycycline (Sigma D-9891, dissolved in H2O and sterile filtered) in medium and the cells were incubated at 37° C. for 48 h. Old medium was removed and fresh medium was added containing 500 ng/mL doxycycline and unknown test compound at required test concentration in DMSO, not exceeding 0.5% final DMSO concentration. The highest concentration tested was 10 μM with a 10-point concentration response curve using a 3-fold dilution. After addition of compounds, the cells were incubated for 24 h at 37° C. On the final day, cells were washed four times in PBS containing 1 mM MgCl2 and 0.1 mM CaCl2. HRP-Substrate (SuperSignal ELISA Pico, Fisher #37069) 20 μl/well was added and the luminescence signal was determined (Viewlux, Perkin Elmer). Light was emitted upon addition of exogenous HRP-Substrate only when delF508-CFTR-HRP reached the cell surface and the HRP tag was accessible to the HRP-Substrate (note: HRP-Substrate cannot cross the lipid bilayer to reach delF508-CFTR-HRP misfolded within the cell).
The median activity for the lowest concentration of the compounds on each assay plate was calculated and this value was used to normalize the signal for each well on the respective plate. Three replicates at each concentrations for every compound were run to determine one EC50. The median value was determined and used to calculate compound activities as described below. Effective half maximal values (EC50) were calculated for each compound by performing logistic regression on measured dose-response data points using the equation: […]
where “Y” is the observed activity, “Bottom” is the lowest observed value, “Top” is the highest observed value, and the “Hill coefficient” gives the largest absolute value of the slope. The curve fitting is carried out by a curve fitting program implemented at GNF using Matlab (Mathworks).
The dose response curves also were used to calculate Fold Change (FC) using the equation: […]
Compound efficacy relative to the reference compound 3-(6-(1-(2,2-difluorobenzo[d][1,3]dioxol-5-yl)cyclopropane-1-carboxamido)-3-methylpyridin-2-yl)benzoic acid was determined using the following formula: […]

T1 sequence (P13569 with tags, fused parts or gaps DEL508-508): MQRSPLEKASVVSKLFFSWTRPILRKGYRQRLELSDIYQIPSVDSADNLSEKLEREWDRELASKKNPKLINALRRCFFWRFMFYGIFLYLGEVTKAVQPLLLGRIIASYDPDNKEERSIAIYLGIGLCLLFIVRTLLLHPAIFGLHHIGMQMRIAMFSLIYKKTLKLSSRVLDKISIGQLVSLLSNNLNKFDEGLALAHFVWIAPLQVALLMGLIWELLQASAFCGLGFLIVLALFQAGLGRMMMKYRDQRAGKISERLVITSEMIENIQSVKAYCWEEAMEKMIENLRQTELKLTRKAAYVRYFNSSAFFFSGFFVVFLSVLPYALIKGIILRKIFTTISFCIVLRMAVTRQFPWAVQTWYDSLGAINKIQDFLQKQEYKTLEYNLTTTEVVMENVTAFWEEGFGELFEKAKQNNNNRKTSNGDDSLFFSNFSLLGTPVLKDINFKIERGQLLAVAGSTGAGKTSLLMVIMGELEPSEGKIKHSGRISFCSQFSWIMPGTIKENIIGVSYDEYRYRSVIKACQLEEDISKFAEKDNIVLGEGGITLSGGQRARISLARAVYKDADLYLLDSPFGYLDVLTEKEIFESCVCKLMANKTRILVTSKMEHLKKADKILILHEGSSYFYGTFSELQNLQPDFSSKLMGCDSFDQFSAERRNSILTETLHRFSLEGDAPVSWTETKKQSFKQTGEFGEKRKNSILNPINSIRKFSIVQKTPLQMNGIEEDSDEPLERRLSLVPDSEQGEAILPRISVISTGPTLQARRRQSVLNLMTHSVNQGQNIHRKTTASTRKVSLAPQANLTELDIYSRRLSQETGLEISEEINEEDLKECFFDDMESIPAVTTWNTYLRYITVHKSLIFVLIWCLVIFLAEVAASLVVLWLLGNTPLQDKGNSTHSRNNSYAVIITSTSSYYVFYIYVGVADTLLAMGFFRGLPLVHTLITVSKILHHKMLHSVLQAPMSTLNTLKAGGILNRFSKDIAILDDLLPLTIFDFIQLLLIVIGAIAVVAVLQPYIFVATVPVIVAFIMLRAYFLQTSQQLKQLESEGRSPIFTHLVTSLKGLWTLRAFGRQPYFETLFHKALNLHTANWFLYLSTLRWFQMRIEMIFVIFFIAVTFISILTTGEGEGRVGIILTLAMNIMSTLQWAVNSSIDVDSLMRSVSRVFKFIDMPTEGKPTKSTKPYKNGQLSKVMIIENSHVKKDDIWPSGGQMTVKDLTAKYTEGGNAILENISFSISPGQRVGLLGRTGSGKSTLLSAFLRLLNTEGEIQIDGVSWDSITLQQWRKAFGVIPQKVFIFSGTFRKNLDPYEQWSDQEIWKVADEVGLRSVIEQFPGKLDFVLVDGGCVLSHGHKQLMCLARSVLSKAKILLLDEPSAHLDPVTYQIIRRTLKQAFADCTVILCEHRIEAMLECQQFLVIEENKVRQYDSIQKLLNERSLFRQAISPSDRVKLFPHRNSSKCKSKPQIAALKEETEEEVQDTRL

In the case of `CCC(NC(=O)C1CCC(Nc2cccc(S(=O)(=O)Nc3ccc(Cl)c(-c4ccccc4C)n3)n2)CC1)C(=O)O` (stereo not shown) [Compound 136, 2-(4-((6-(N-(5-chloro-6-(o-tolyl)pyridin-2-yl)sulfamoyl)pyridin-2-yl)amino)cyclohexane-1-carboxamido)butanoic Acid], the EC50 was determined as 2310 nM and the Emax came out at 952%. For `Cc1c(F)cccc1-c1nc(NS(=O)(=O)c2cccc(N(C)CC(C)(C)C(=O)O)n2)ccc1C(F)(F)F` [Compound 47, 3-((6-(N-(6-(3-fluoro-2-methylphenyl)-5-(trifluoromethyl)pyridin-2-yl)sulfamoyl)pyridin-2-yl)(methyl)amino)-2,2-dimethylpropanoic Acid], in that order: 1820 nM and 496%. As for `Cc1ccccc1-c1nc(NS(=O)(=O)c2cccc(SCCC(=O)O)n2)ccc1C(F)(F)F` [Compound 117, 3-((6-(N-(6-(o-tolyl)-5-(trifluoromethyl)pyridin-2-yl)sulfamoyl)pyridin-2-yl)thio)propanoic Acid], the EC50 came out at 2430 nM and the Emax is 196%. Take `CC1(C(=O)O)CCN(c2cccc(S(=O)(=O)Nc3ccc(Cl)c(-c4ccccc4-c4ccccc4)n3)n2)CC1` [Compound 19, 1-(6-(N-(6-([1,1′-biphenyl]-2-yl)-5-chloropyridin-2-yl)sulfamoyl)pyridin-2-yl)-4-methylpiperidine-4-carboxylic Acid]: the EC50 stood at 2240 nM and the Emax is 378%. In the case of `Cc1ccccc1-c1nc(NS(=O)(=O)c2cccc(N3CCCC(CCCC(=O)O)C3)n2)ccc1C(F)(F)F` (stereo not shown) [Compound 75, 4-(1-(6-(N-(6-(o-tolyl)-5-(trifluoromethyl)pyridin-2-yl)sulfamoyl)pyridin-2-yl)piperidin-3-yl)butanoic Acid], the EC50 stood at 2000 nM.

Consider `Cc1ccccc1-c1nc(NS(=O)(=O)c2cccc(N3CCC(CC(=O)O)C3)n2)ccc1C(F)(F)F` (stereo not shown) [Compound 32, 2-(1-(6-(N-(6-(o-tolyl)-5-(trifluoromethyl)pyridin-2-yl)sulfamoyl)pyridin-2-yl)pyrrolidin-3-yl)acetic Acid], for which the EC50 was found to be 1800 nM and the Emax is 372%.

For the molecule `CN(CCCC(=O)O)c1cccc(S(=O)(=O)Nc2ccc(C(F)(F)F)c(-c3ccccc3C3CC3)n2)n1` [Compound 41, 4-((6-(N-(6-(2-cyclopropylphenyl)-5-(trifluoromethyl)pyridin-2-yl)sulfamoyl)pyridin-2-yl)(methyl)amino)butanoic Acid], the EC50 was determined as 1480 nM.

For `CCc1ccccc1-c1nc(NS(=O)(=O)c2cccc(OC3CCC(C(=O)O)CC3)n2)ccc1C(F)(F)F` (stereo not shown) [Compound 120, 4-((6-(N-(6-(2-ethylphenyl)-5-(trifluoromethyl)pyridin-2-yl)sulfamoyl)pyridin-2-yl)nxy)cyclohexane-1-carboxylic Acid], the EC50 turned out to be 1390 nM and the Emax came to 330%. Taken in the same sequence, the figures for `Cc1ccccc1-c1nc(NS(=O)(=O)c2cccc(NCCC(=O)O)n2)ccc1C(F)(F)F` [Compound 35, 3-((6-(N-(6-(o-tolyl)-5-(trifluoromethyl)pyridin-2-yl)sulfamoyl)pyridin-2-yl)amino)propanoic acid] were 2600 nM and 209%. As for `CCN(CCC(=O)O)c1cccc(S(=O)(=O)Nc2ccc(C(F)(F)F)c(-c3c(C)cccc3C)n2)n1` [Compound 145, 3-((6-(N-(6-(2,6-dimethylphenyl)-5-(trifluoromethyl)pyridin-2-yl)sulfamoyl)pyridin-2-yl)(ethyl)amino)propanoic Acid], the EC50 was found to be 1830 nM. For the molecule `Cc1ccccc1-c1nc(NS(=O)(=O)c2cccc(N(CCC(=O)O)C3CCC3)n2)ccc1C(F)(F)F` [Compound 147, 3-(cyclobutyl(6-(N-(6-(o-tolyl)-5-(trifluoromethyl)pyridin-2-yl)sulfamoyl)pyridin-2-yl)amino)propanoic acid], the EC50 was found to be 1150 nM and the Emax was 802%.

Regarding `Cc1ccc(F)cc1-c1nc(NS(=O)(=O)c2cccc(N3CCC(C)(CC(=O)O)C3)n2)ccc1C(F)(F)F` (stereo not shown) [Compound 55, 2-(1-(6-(N-(6-(5-fluoro-2-methylphenyl)-5-(trifluoromethyl)pyridin-2-yl)sulfamoyl)pyridin-2-yl)-3-methylpyrrolidin-3-yl)acetic Acid], the EC50 is 1680 nM and the Emax is 457%. As to `Cc1ccc(F)cc1-c1nc(NS(=O)(=O)c2cccc(N(CCC(=O)O)CC3CC3)n2)ccc1C(F)(F)F` [Compound 69, 3-((cyclopropylmethyl)(6-(N-(6-(5-fluoro-2-methylphenyl)-5-(trifluoromethyl)pyridin-2-yl)sulfamoyl)pyridin-2-yl)amino)propanoic Acid], the EC50 was found to be 1760 nM. For `CC1(C(=O)O)CCN(c2cccc(S(=O)(=O)Nc3ccc(C(F)(F)F)c(-c4ccccc4Oc4ccccc4)n3)n2)CC1` [Compound 28, 4-methyl-1-(6-(N-(6-(2-phenoxyphenyl)-5-(trifluoromethyl)pyridin-2-yl)sulfamoyl)pyridin-2-yl)piperidine-4-carboxylic Acid], the EC50 was 1450 nM and the Emax amounted to 442%.

As for `C=Cc1ccccc1-c1nc(NS(=O)(=O)c2cccc(N3CCC[C@H](CC(=O)O)C3)n2)ccc1C(F)(F)F` [Compound 57, (R)-2-(1-(6-(N-(5-(trifluoromethyl)-6-(2-vinylphenyl)pyridin-2-yl)sulfamoyl)pyridin-2-yl)piperidin-3-yl)acetic Acid], the EC50 is 1970 nM. Regarding `O=C(O)CC1CCN(c2cccc(S(=O)(=O)Nc3ccc(C(F)(F)F)c(-c4ccccc4C4CC4)n3)n2)C1` (stereo not shown) [Compound 33, 2-(1-(6-(N-(6-(2-cyclopropylphenyl)-5-(trifluoromethyl)pyridin-2-yl)sulfamoyl)pyridin-2-yl)pyrrolidin-3-yl)acetic Acid], the EC50 is 1280 nM and the Emax was 320%. In the case of `CCc1ccccc1-c1nc(NS(=O)(=O)c2cccc(N3CCCC(CCC(=O)O)C3)n2)ccc1C(F)(F)F` (stereo not shown) [Compound 82, 3-(1-(6-(N-(6-(2-ethylphenyl)-5-(trifluoromethyl)pyridin-2-yl)sulfamoyl)pyridin-2-yl)piperidin-3-yl)propanoic Acid], the EC50 came out at 1040 nM. `Cc1ccccc1-c1nc(NS(=O)(=O)c2cccc(N3CCC[C@@](C)(CC(=O)O)C3)n2)ccc1C(F)(F)F` (single isomer, unassigned) [Compound 122]: the EC50 was determined as 1620 nM and the Emax was determined as 785%. As to `O=C(O)CCCNc1cccc(S(=O)(=O)Nc2ccc(C(F)(F)F)c(-c3ccccc3C3CC3)n2)n1` [Compound 40, 4-((6-(N-(6-(2-cyclopropylphenyl)-5-(trifluoromethyl)pyridin-2-yl)sulfamoyl)pyridin-2-yl)amino)butanoic Acid], the EC50 is 2530 nM and the Emax was 314%. As to `Cc1ccccc1-c1nc(NS(=O)(=O)c2cccc(N3CCC(C)(CC(=O)O)C3)n2)ccc1C(F)(F)F` (stereo not shown) [Compound 53, 2-(3-methyl-1-(6-(N-(6-(o-tolyl)-5-(trifluoromethyl)pyridin-2-yl)sulfamoyl)pyridin-2-yl)pyrrolidin-3-yl)acetic Acid], the EC50 worked out at 1780 nM and the Emax amounted to 411%. As to `C=Cc1ccccc1-c1nc(NS(=O)(=O)c2cccc(N3CCCC(CCCC(=O)O)C3)n2)ccc1C(F)(F)F` (stereo not shown) [Compound 76, 4-(1-(6-(N-(5-(trifluoromethyl)-6-(2-vinylphenyl)pyridin-2-yl)sulfamoyl)pyridin-2-yl)piperidin-3-yl)butanoic Acid], the EC50 stood at 1460 nM. As to `CC1(C(=O)O)CCCN(c2cccc(S(=O)(=O)Nc3ccc(Cl)c(-c4ccccc4-c4ccccc4)n3)n2)C1` (stereo not shown) [Compound 29, 1-(6-(N-(6-([1,1′-biphenyl]-2-yl)-5-chloropyridin-2-yl)sulfamoyl)pyridin-2-yl)-3-methylpiperidine-3-carboxylic Acid], the EC50 came to 1300 nM and the Emax came out at 969%.
